The term melting point denotes the temperature, or range, at which the solid turns liquid. Take `COc1cc(Nc2ncc3c(n2)-c2ccccc2CCC3)cc(OC)c1OC` [Example 6, N-(3,4,5-Trimethoxyphenyl)-6,7-dihydro-5H-benzo[6,7]cyclohepta[d]pyrimidine-2-amine]: the melting point was in the range of 201 to 202 °C.

The values are drawn from patent publication US6599908B1, “Fused polycyclic 2-aminopyrimidine derivatives” (Celltech R & D Limited, priority 1996, dated 2003).
